Assay results: patent US10597388B2, “Pyridazinone herbicides” (FMC CORPORATION, priority 2014, dated 2020)

Tests used:
Experiment in all cases: Test A greenhouse herbicide test, pre- and postemergence
Assay type in all cases: in vivo
[1] = tested on: foxtail, giant (giant foxtail, Setaria faberii)
How it was run: (§1)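 Seeds in loam–sand blend received a preemergence directed soil spray; plants at 2–10 cm, one- to two-leaf stage, received postemergence sprays. Compounds in a non-phytotoxic solvent with surfactant. After about 10 d in a greenhouse, injury rated visually versus untreated controls on a 0–100 scale (100 = complete control).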

[2] = tested on: ryegrass, Italian (Italian ryegrass, Lolium multiflorum)
How it was run: as §1

[3] = tested on: pigweed (Amaranthus retroflexus)
How it was run: as §1

[4] = tested on: wheat (Triticum aestivum); details: Postemergence
How it was run: as §1

corn (Zea mays) = details: Postemergence
How it was run: as §1

[5] = tested on: barnyardgrass (Echinochloa crus-galli)
How it was run: as §1

kochia (Kochia scoparia) = tested on: kochia (Kochia scoparia)
How it was run: as §1

[6] = tested on: ragweed (common ragweed, Ambrosia elatior)
How it was run: as §1

[7] = Postemergence, 125 g ai/ha, 0 to 100 scale where 0 is no effect and 100 is complete control
[8] = Postemergence, 500 g ai/ha, visual rating after approx. 10 d, 0 to 100 scale (0 no effect, 100 complete control)
[9] = Preemergence, 125 g ai/ha, 0 to 100 scale where 0 is no effect and 100 is complete control
[10] = Preemergence, 500 g ai/ha, 0 to 100 scale where 0 is no effect and 100 is complete control
[11] = 125 g ai/ha, 0 to 100 scale where 0 is no effect and 100 is complete control
[12] = 500 g ai/ha, visual rating after approx. 10 d, 0 to 100 scale (0 no effect, 100 complete control)
[13] = Postemergence, 125 g ai/ha, 0 to 100 scale, 0 no effect, 100 complete control
[14] = Preemergence, 125 g ai/ha, visual injury rating, 0 to 100 scale (0 no effect, 100 complete control), approx. 10 d
[15] = 125 g ai/ha, 0 to 100 scale, 0 no effect, 100 complete control

SMILES	Plant response rating, Foxtail, Giant [1, 7]	Plant response rating, Foxtail, Giant [1, 8]	Foxtail, Giant plant response rating [1, 9]	Plant response rating, Foxtail, Giant [1, 10]	Plant response rating, Ryegrass, Italian [2, 7]	Plant response rating, Ryegrass, Italian [2, 8]	Plant response rating, Ryegrass, Italian [2, 10]	Plant response rating, Pigweed [3, 7]	Plant response rating, Pigweed [3, 8]	Pigweed plant response rating [3, 9]	Plant response rating, Pigweed [3, 10]	Plant response rating, Wheat [4, 11]	Plant response rating, Wheat [4, 12]	Plant response rating, Corn (corn (Zea mays); [12])	Plant response rating, Barnyardgrass [5, 8]	Plant response rating, Barnyardgrass [5, 10]	Plant response rating, Kochia (kochia (Kochia scoparia); [8])	Plant response rating, Kochia (kochia (Kochia scoparia); [10])	Plant response rating, Ragweed [6, 8]	Plant response rating, Ragweed [6, 10]	other results
COC(=O)Oc1c(OC)nn(C)c(=O)c1-c1c(C)ccc2ccccc12 [Compound 136]	90	100	80	100	90	100	100	90	100	100	100	0	30	30	100	80	100	90	100	90	Ryegrass, Italian plant response rating [2, 9]: 90; Plant response rating, Corn (corn (Zea mays); [11]): 30; Plant response rating, Barnyardgrass [5, 7]: 20; Barnyardgrass plant response rating [5, 9]: 10; Plant response rating, Kochia (kochia (Kochia scoparia); [7]): 100; Kochia plant response rating (kochia (Kochia scoparia); [9]): 60; Plant response rating, Ragweed [6, 7]: 100; Ragweed plant response rating [6, 9]: 80
Cc1nn(C)c(=O)c(-c2ccc(Cl)c3ccccc23)c1O [Compound 139]	70	100	60	100	100	100	100	60	100	100	100	30	30	40	100	100	100	100	100	100	Plant response rating, Corn (corn (Zea mays); [11]): 30; Plant response rating, Barnyardgrass [5, 7]: 20; Barnyardgrass plant response rating [5, 9]: 20; Plant response rating, Kochia (kochia (Kochia scoparia); [7]): 100; Kochia plant response rating (kochia (Kochia scoparia); [9]): 100; Plant response rating, Ragweed [6, 7]: 100
Cc1ccc2ccc(Cl)cc2c1-c1c(O)c(C)nn(C)c1=O [Compound 144]	100	100	100	100	100	100	100	100	100	100	100	90	100	90	100	100	100	100	100	100	Plant response rating, Corn (corn (Zea mays); [11]): 60; Plant response rating, Barnyardgrass [5, 7]: 100; Barnyardgrass plant response rating [5, 9]: 90; Plant response rating, Kochia (kochia (Kochia scoparia); [7]): 100; Kochia plant response rating (kochia (Kochia scoparia); [9]): 100; Plant response rating, Ragweed [6, 7]: 100
COC(=O)Oc1c(C)nn(C)c(=O)c1-c1ccc(Br)c2ccccc12 [Compound 145]	20	80	30	90	100	100	100	100	100	90	100	20	30	60	90	90	100	100	100	100	Plant response rating, Corn (corn (Zea mays); [11]): 20; Plant response rating, Barnyardgrass [5, 7]: 20; Barnyardgrass plant response rating [5, 9]: 20; Plant response rating, Kochia (kochia (Kochia scoparia); [7]): 100; Kochia plant response rating (kochia (Kochia scoparia); [9]): 90; Plant response rating, Ragweed [6, 7]: 100
CC(=O)Oc1c(Cl)nn(C)c(=O)c1-c1c(C)sc2ccc(C(F)(F)F)cc12 [Compound 152]		50		90		90	100		60		90		50	0	40	40	40	70	90	100	Plant response rating, Foxtail, Giant [1, 13]: 30; Plant response rating, Foxtail, Giant [1, 14]: 40; Plant response rating, Ryegrass, Italian [2, 13]: 30; Plant response rating, Ryegrass, Italian [2, 14]: 90; Plant response rating, Pigweed [3, 13]: 50; Plant response rating, Pigweed [3, 14]: 90; Plant response rating, Wheat [4, 15]: 30; Plant response rating, Corn (corn (Zea mays); [15]): 0; Plant response rating, Barnyardgrass [5, 13]: 20; Plant response rating, Barnyardgrass [5, 14]: 40; Plant response rating, Kochia (kochia (Kochia scoparia); [13]): 30; Plant response rating, Kochia (kochia (Kochia scoparia); [14]): 30; Plant response rating, Ragweed [6, 13]: 70; Plant response rating, Ragweed [6, 14]: 80
Cc1nn(C)c(=O)c(-c2c([N+](=O)[O-])ccc3ccccc23)c1O [Compound 165]		50		40		90	100		80		90		0	20	30	30	90	100	90	90	Plant response rating, Foxtail, Giant [1, 13]: 20; Plant response rating, Foxtail, Giant [1, 14]: 10; Plant response rating, Ryegrass, Italian [2, 13]: 80; Plant response rating, Ryegrass, Italian [2, 14]: 40; Plant response rating, Pigweed [3, 13]: 80; Plant response rating, Pigweed [3, 14]: 100; Plant response rating, Wheat [4, 15]: 0; Plant response rating, Corn (corn (Zea mays); [15]): 0; Plant response rating, Barnyardgrass [5, 13]: 20; Plant response rating, Barnyardgrass [5, 14]: 10; Plant response rating, Kochia (kochia (Kochia scoparia); [13]): 60; Plant response rating, Kochia (kochia (Kochia scoparia); [14]): 60; Plant response rating, Ragweed [6, 13]: 90; Plant response rating, Ragweed [6, 14]: 50
